Measured values reported in ChEMBL document CHEMBL1127721, “EPSP synthase inhibitor design IV. New aromatic substrate analogs and symmetrical inhibitors containing novel 3-phosphate mimics” (Bioorg Med Chem Lett, 1994).
pIC50, pKi: −log10 of the molar value.

target: T1, 3-phosphoshikimate 1-carboxyvinyltransferase (Escherichia coli K-12, UniProt P0A6D3); assay: Inhibition of Escherichia coli EPSP synthase; details: not given
T1 sequence (P0A6D3 whole entry): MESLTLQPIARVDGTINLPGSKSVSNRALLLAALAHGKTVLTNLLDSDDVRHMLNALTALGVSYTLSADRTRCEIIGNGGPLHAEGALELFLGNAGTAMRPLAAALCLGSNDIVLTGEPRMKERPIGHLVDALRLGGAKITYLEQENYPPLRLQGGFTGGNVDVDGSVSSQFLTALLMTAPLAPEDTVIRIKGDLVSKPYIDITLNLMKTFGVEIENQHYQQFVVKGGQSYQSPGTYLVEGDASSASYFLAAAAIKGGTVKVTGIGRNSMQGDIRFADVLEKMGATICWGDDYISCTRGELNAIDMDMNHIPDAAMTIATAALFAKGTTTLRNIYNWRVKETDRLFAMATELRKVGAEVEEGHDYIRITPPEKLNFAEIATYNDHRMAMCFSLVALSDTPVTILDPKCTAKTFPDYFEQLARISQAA

SMILES	pIC50	pKi
O=C(O)c1cc(O)cc(OP(=O)(O)O)c1	2.10	–
O=C(O)c1cc(O)cc(C(O)P(=O)(O)O)c1 (stereo not drawn)	2.00	–
O=C(O)COc1cc(C(=O)O)cc(C(O)P(=O)(O)O)c1 (stereo not drawn)	2.52	–
O=C(O)c1cc(OC(C(=O)O)C(=O)O)cc(OC(C(=O)O)C(=O)O)c1	3.68	–
O=C(O)COc1cc(OC(C(=O)O)C(=O)O)cc(C(=O)O)c1	2.70	–
O=C(O)c1cc(OP(=O)(O)O)cc(OP(=O)(O)O)c1	4.07	–
O=C(O)CO[C@@H]1CC(C(=O)O)=C[C@@H](OP(=O)(O)O)[C@@H]1O	4.00	5.82
O=C(O)COc1cc(CP(=O)(O)O)cc(C(=O)O)c1	2.00	–
O=C(O)c1cc(O)cc(CP(=O)(O)O)c1	< 1.10	–
O=C(O)c1cc(O)cc(OC(C(=O)O)C(=O)O)c1	2.00	–
O=C(O)COc1cc(C(=O)O)cc(P(=O)(O)O)c1	2.00	–
O=C(O)c1cc(OC(C(=O)O)P(=O)(O)O)cc(OP(=O)(O)O)c1 (stereo not drawn)	4.70	6.80
O=C(O)COc1cc(OP(=O)(O)O)cc(C(=O)O)c1	2.85	–
O=C(O)c1cc(CP(=O)(O)O)cc(CP(=O)(O)O)c1	2.52	–

same assay, conditions: read-out: Ki app

SMILES	pKi
O=C(O)c1cc(OC(C(=O)O)C(=O)O)cc(OC(C(=O)O)C(=O)O)c1	5.60
O=C(O)c1cc(OP(=O)(O)O)cc(OP(=O)(O)O)c1	6.11
